For data set [1], the system named is human MDR1. Kind of data set: Efflux ratio of permeability across basolateral to apical side over apical to basolateral side in MDCK cells expressing human MDR1 at 5 uM by LC-MS/MS method. In kind it is ADME, cell-based, Canis lupus familiaris. To be noted: dog.
Data set [2] concerns the target T1, Cholecystokinin receptor type A (Homo sapiens, UniProt P32238).
T1 sequence (P32238 whole entry): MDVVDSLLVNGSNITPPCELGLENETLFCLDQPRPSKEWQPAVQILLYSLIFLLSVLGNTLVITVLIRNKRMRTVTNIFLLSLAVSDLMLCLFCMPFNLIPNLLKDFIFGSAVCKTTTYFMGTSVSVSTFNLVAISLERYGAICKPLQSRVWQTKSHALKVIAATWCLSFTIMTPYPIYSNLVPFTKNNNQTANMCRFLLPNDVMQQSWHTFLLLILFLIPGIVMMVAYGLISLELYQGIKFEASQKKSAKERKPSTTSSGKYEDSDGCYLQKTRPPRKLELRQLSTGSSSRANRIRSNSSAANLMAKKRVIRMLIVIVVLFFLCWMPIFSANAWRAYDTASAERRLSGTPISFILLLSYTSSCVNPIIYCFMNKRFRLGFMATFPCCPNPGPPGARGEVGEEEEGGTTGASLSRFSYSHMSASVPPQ
The data set can be described thus: Agonist activity at human wild-type CCKA receptor expressed in CHO-K1 cells assessed as calcium level by FDSS assay. In kind it is functional, cell-based.

Data set [3] is described as follows: Chemical stability of compound in 0.1N HCL and 0.5% H2O2 assessed as compound remaining at 10 mg/ml after 1 day. In kind it is physicochemical. Particulars: read-out: Stability; call rule not given here.
Data set [4] can be described thus: Chemical stability of compound in 0.1N HCL assessed as compound remaining at 10 mg/ml after 1 day. In kind it is physicochemical. To be noted: read-out: Stability.
The target of data set [5] is T2, 5-hydroxytryptamine receptor 7 (Homo sapiens, UniProt P34969). Kind of data set: Antagonist activity at human wild-type 5-HT7 receptor expressed in HEK cells assessed as seretonin-induced cAMP by HTRF assay. In kind it is functional, cell-based, HEK293. In general terms: Time-resolved FRET reads energy transfer from a long-lived donor to a nearby acceptor.
Data set [6] has as its system Salmonella typhimurium. Kind of data set: Mutagenicity in Salmonella typhimurium by Ames test. To be noted: salmonella enterica subsp. enterica serovar typhimurium. In kind it is toxicity, organism-based.
Data set [7] in a line: Log D of compound at pH 7.4 by chromotography. To be noted: buffer. In kind it is physicochemical.
Data set [8] addresses D(1A) dopamine receptor (Homo sapiens, UniProt P21728). Kind of data set: Antagonist activity at human wild-type D1 receptor expressed in CHO cells assessed as dopamine-induced cAMP by HTRF assay. In kind it is functional, cell-based.
Data set [9] has as its target 5-hydroxytryptamine receptor 2B (Homo sapiens, UniProt P41595). Kind of data set: Agonist activity at human 5-HT2B receptor expressed in CHO-K1 cells assessed as calcium level by FDSS assay. In kind it is functional, cell-based.
Data set [10] can be described thus: Chemical stability of compound in DMSO assessed as compound remaining at 10 mg/ml after 2 days at room temperature. In kind it is physicochemical. Particulars: read-out: Stability.
Data set [11] addresses T2, 5-hydroxytryptamine receptor 7. The data set can be described thus: Agonist activity at human wild-type 5-HT7 receptor expressed in HEK cells assessed as cAMP by HTRF assay. In kind it is functional, cell-based, HEK293.
In data set [12] the target is D(2) dopamine receptor (Homo sapiens, UniProt P14416). The data set can be described thus: Antagonist activity at human wild-type D2 receptor expressed in CHO-K1 cells assessed as dopamine-induced cAMP by HTRF assay. In kind it is functional, cell-based.
The target of data set [13] is Beta-1 adrenergic receptor (Homo sapiens, UniProt P08588). The data set can be described thus: Antagonist activity at human beta1 receptor expressed in CHO-K1 cells assessed as isoproterenol-induced cAMP level by HTRF assay. In kind it is functional, cell-based.
For data set [14], the target named is 5-hydroxytryptamine receptor 2A (Homo sapiens, UniProt P28223). The data set can be described thus: Antagonist activity at human 5-HT2A receptor expressed in CHO-K1 cells assessed as seretonin-induced calcium level by FDSS assay. In kind it is functional, cell-based.
The target of data set [15] is T3, Type-1 angiotensin II receptor (Homo sapiens, UniProt P30556).
T3 sequence (P30556 whole entry): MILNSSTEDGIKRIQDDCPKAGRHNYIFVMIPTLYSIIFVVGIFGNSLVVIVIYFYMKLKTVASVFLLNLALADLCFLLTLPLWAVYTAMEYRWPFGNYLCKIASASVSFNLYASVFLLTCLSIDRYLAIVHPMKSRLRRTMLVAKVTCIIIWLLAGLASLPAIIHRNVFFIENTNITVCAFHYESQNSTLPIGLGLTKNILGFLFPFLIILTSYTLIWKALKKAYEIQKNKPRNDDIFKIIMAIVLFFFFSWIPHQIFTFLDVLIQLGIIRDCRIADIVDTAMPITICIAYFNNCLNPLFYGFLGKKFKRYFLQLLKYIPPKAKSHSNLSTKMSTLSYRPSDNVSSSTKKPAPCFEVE
The data set can be described thus: Agonist activity at human wild-type AGTR1 receptor expressed in CHO-K1 cells assessed as calcium level by FDSS assay. In kind it is functional, cell-based.

Data set [16] in a line: Chemical stability of compound in 0.1N NaOH assessed as compound remaining at 10 mg/ml after 1 day. In kind it is physicochemical. To be noted: read-out: Stability.
Data set [17] is described as follows: Chemical stability of compound in buffer at pH 7.4 assessed as compound remaining at 10 mg/ml after 2 days. In kind it is physicochemical. To be noted: read-out: Stability.
Data set [18] relates to Liver microsome. Kind of data set: Metabolic stability in human liver microsomes assessed as GSH adduct formation at 40 uM for 1 hr by LC/MS analysis. In kind it is ADME.
Data set [19] deals with Kappa-type opioid receptor (Homo sapiens, UniProt P41145). Kind of data set: Antagonist activity at human wild-type opioid-kappa 1 receptor expressed in CHO-K1 cells assessed as U50488-induced cAMP by HTRF assay. In kind it is functional, cell-based.
A short description of data set [20]: Chemical stability of compound in buffer at pH 7.4 assessed as compound remaining at 10 mg/ml after 1 day. Particulars: read-out: Stability. In kind it is physicochemical.
For data set [21], the target named is Cytochrome P450 3A4 (Homo sapiens, UniProt P08684). Kind of data set: Inhibition of human CYP3A4 by LC-MS analysis. In kind it is ADME.
Data set [22] has as its target Vasopressin V1a receptor (Homo sapiens, UniProt P37288). The data set can be described thus: Agonist activity at human wild-type AVPR1A receptor expressed in CHO-K1 cells assessed as calcium level by FDSS assay. In kind it is functional, cell-based.
Data set [23] addresses T4, Delta-type opioid receptor (Homo sapiens, UniProt P41143). Kind of data set: Agonist activity at human wild-type opioid-delta 1 receptor expressed in CHO-K1 cells assessed as cAMP level by HTRF assay. In kind it is functional, cell-based. A general note: Cyclic AMP is a second messenger, typically raised through Gs and lowered through Gi signalling.
In data set [24] the target is T4, Delta-type opioid receptor. The data set can be described thus: Antagonist activity at human wild-type opioid-delta 1 receptor expressed in CHO-K1 cells assessed as DPDPE-induced cAMP by HTRF assay. In kind it is functional, cell-based.

The record followed here is ChEMBL document CHEMBL3734721 (J Med Chem, 2015).

Molecules are shown by their SMILES. pEC50, pIC50: −log10 of the molar value.

Usually efflux ratio stands for a quotient of directional permeabilities that is used to spot active efflux. Broadly, the pEC50 is the EC50 on a negative log10 scale, so that one unit is a factor of ten. The pIC50 is −log10 of the IC50, conventionally taken in molar units. One may read the chromatographic logD as a lipophilicity value derived from retention on a column. The low end stands for a more hydrophilic compound, the high end for a more lipophilic compound.

T2 sequence (P34969 whole entry): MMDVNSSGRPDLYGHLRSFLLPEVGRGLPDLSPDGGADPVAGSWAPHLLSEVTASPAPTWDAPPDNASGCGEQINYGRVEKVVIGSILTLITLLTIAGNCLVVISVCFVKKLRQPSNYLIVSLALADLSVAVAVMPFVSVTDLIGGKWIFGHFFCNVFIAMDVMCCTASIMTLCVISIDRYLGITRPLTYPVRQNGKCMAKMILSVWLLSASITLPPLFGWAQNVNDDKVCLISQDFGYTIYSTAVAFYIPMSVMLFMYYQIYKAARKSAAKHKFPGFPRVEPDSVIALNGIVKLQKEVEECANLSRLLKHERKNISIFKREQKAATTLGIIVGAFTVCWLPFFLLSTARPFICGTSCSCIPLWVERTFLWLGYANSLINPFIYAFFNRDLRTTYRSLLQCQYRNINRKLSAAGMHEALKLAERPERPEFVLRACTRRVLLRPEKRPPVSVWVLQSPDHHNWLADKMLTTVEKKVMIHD
Sequence of 5-hydroxytryptamine receptor 2A (P28223 whole entry): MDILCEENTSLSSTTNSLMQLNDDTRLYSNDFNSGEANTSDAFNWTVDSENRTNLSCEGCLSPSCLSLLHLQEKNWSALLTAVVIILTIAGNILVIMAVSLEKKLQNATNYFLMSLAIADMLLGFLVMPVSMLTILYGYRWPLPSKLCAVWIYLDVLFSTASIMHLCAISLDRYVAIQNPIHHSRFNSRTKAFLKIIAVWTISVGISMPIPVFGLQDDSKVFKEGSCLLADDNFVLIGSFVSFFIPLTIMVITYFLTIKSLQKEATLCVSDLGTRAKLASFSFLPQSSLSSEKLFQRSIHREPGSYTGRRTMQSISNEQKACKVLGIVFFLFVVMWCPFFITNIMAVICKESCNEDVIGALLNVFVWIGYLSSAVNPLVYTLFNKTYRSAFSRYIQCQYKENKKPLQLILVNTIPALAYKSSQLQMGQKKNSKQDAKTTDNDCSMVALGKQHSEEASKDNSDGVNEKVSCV
Sequence of Kappa-type opioid receptor (P41145 whole entry): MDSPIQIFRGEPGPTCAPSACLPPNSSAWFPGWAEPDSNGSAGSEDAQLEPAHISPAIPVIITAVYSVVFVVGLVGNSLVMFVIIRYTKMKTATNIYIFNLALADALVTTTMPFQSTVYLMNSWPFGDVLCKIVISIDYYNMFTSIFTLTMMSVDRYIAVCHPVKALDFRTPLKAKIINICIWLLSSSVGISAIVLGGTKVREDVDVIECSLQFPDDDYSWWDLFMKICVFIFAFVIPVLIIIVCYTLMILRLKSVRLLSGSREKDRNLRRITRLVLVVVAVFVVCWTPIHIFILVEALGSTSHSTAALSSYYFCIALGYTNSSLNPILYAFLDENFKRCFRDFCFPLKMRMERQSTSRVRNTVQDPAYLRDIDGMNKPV
Sequence of Cytochrome P450 3A4 (P08684 whole entry): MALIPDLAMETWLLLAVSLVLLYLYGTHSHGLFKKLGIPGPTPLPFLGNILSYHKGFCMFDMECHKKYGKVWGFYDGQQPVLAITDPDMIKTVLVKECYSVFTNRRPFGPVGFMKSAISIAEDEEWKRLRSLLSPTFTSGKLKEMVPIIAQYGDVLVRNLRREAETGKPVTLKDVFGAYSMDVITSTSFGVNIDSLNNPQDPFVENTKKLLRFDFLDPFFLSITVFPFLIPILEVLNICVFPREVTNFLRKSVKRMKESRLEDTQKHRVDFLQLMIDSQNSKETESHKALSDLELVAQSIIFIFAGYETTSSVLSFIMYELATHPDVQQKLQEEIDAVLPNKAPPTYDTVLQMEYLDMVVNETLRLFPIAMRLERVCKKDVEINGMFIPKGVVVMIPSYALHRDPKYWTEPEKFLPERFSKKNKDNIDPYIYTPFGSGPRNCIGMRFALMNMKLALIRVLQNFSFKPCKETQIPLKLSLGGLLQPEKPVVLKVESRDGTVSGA
Sequence of 5-hydroxytryptamine receptor 2B (P41595 whole entry): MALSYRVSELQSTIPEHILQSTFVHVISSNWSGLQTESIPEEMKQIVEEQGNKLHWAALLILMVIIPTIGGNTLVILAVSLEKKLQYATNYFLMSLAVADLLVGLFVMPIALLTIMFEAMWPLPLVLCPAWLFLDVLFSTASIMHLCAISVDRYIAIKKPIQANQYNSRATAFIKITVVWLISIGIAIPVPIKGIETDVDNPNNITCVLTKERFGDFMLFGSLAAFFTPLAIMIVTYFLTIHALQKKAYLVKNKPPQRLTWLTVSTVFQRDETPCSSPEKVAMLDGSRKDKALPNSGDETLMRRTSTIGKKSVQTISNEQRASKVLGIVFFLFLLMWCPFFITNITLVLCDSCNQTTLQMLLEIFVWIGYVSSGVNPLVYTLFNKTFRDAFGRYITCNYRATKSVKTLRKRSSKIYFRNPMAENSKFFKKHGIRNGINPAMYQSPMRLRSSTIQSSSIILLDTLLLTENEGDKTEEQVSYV
Sequence of D(1A) dopamine receptor (P21728 whole entry): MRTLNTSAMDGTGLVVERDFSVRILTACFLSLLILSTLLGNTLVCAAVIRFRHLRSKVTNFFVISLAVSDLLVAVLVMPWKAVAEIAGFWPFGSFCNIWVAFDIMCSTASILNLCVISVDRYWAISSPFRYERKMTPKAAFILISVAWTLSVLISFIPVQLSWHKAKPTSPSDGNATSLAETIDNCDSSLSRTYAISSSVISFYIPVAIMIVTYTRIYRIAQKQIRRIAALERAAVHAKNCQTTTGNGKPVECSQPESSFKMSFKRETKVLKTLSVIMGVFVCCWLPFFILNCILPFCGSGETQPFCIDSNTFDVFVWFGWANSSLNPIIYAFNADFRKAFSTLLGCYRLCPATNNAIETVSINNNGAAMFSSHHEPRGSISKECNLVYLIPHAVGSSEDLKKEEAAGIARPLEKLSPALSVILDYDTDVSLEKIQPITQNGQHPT
Sequence of D(2) dopamine receptor (P14416 whole entry): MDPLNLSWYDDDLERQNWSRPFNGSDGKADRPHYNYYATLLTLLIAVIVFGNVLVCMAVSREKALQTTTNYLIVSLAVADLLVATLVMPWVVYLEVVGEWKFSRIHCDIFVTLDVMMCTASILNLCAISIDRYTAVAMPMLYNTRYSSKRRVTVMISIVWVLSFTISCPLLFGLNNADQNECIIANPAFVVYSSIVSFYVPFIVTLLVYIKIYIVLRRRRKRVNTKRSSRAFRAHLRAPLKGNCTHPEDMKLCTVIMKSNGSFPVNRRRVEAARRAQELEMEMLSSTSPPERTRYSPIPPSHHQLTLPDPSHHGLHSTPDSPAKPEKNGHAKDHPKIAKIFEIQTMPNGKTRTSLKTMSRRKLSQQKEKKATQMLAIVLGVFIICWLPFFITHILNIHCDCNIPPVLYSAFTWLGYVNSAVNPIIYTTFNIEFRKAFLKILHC
Sequence of Vasopressin V1a receptor (P37288 whole entry): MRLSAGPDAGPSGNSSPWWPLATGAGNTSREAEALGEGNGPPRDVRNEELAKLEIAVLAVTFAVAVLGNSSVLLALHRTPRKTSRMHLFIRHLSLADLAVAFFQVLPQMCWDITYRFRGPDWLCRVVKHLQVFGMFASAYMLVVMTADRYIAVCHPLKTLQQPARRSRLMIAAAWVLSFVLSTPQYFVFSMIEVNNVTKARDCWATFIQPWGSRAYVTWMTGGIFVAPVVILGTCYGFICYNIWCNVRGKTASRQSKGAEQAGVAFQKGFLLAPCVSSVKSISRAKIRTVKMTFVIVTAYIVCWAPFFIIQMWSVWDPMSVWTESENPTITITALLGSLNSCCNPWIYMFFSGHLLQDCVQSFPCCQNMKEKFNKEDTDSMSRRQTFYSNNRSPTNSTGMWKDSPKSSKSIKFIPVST
T4 sequence (P41143 whole entry): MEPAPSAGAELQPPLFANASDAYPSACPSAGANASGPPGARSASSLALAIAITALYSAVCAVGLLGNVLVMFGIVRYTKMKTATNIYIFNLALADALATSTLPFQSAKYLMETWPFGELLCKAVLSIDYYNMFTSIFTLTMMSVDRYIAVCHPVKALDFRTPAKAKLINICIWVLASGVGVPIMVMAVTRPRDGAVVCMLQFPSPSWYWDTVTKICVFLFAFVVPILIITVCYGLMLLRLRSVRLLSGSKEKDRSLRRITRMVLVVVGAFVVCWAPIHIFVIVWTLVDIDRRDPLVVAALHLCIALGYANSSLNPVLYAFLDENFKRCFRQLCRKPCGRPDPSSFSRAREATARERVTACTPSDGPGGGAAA
Sequence of Beta-1 adrenergic receptor (P08588 whole entry): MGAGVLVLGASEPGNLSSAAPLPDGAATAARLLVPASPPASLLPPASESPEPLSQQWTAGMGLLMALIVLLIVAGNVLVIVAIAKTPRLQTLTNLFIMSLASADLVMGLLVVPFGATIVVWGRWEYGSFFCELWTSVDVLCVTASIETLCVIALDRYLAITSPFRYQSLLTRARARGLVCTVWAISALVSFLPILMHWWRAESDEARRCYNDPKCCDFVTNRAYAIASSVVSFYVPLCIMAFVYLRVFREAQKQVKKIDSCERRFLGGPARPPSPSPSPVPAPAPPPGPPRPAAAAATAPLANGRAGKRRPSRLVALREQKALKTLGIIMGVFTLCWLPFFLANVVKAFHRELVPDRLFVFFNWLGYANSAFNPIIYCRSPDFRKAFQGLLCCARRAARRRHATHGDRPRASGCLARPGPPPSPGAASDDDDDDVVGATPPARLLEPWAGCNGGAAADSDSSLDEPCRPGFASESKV

With `CB1C=Cc2cccc(OCC(O)CNC(C)C)c2N1` (stereo not drawn), in [1], the efflux ratio at 5 µM worked out at 2.1. For the same compound, the pEC50 in [2], in data set [9], in data set [11], in data set [15] and in data set [22] was less than 5.30 in each case. The remaining at 24 h, 10 mg/ml was 0% in data set [3], 0% in [4], 88% in data set [16] and 93% in data set [20]. In addition, the pIC50 in data set [5] is less than 5.30; in [8] it was less than 5.30; in data set [12] it was less than 5.30; in data set [13], 6.20; in [14], less than 5.30; in data set [19] it was less than 5.30. The pIC50 in data set [21] is less than 5.00. Besides, the Activity result in data set [6] is reported as “Non-toxic”. This compound registered a chromatographic logD in data set [7] of 2.31. Besides, the remaining at 48 h, 10 mg/ml in data set [10] came out at 96%; in [17], 91%. Moreover, the Stability result in data set [18] is “Stable”.

On to `CB1C=Cc2c(cccc2OCC(O)CN(C)C)N1` (stereo not drawn), for which the pEC50 in [23], in data set [2], in [9], in [11], in data set [15] and in data set [22] was less than 5.30 in each case. The results for the remaining at 24 h, 10 mg/ml in data set [4], in [16] and in [20] were 0%, 89% and 96%, respectively. For the same compound, the pIC50 in data set [5] is less than 5.30; in [8], less than 5.30; in data set [12] it was less than 5.30; in data set [13], 6.70; in [14], less than 5.30; in data set [19], less than 5.30. In addition, the pIC50 in data set [24] was less than 5.30; in data set [21], less than 5.00. In [7], this compound showed a chromatographic logD of 1.81. Also, the remaining at 48 h, 10 mg/ml in data set [10] and in data set [17] was 96% in each case. Also, the Stability entry in data set [18] is on record as “Stable”.
